Data published in the OPERA property sets (Mansouri et al. 2018).
In brackets after ≈: the same amount, converted by molar mass.

SMILES	logP	further results
CC[C@H]1O[C@]2(CC[C@@H]1C)C[C@@H]1C[C@@H](CC=C(C)C[C@@H](C)C=CC=C3CO[C@@H]4[C@H](O)C(C)=C[C@@H](C(=O)O1)[C@]34O)O2	5.9	solubility (20 °C): 0.0133 mM (≈ 7.2 µg/mL)
C[Si](Cn1cncn1)(c1ccc(F)cc1)c1ccc(F)cc1	–	solubility (pH 7.2, 20 °C): 0.171 mM (≈ 54 µg/mL)
Clc1cccc(C(Cl)(Cl)Cl)n1	–	solubility (25 °C): 0.233 mM (≈ 53.7 µg/mL)
CC(C)(C)C(O)/C(=C\c1ccc(Cl)cc1)n1cncn1 (configuration not stated)	3.67	–
O=C(NC(=O)c1c(F)cccc1F)Nc1ccc(Cl)c(Oc2ncc(C(F)(F)F)cc2Cl)c1	–	solubility (25 °C): < 3.95e-05 mM
CC(C)NC(=O)N1CC(=O)N(c2cc(Cl)cc(Cl)c2)C1=O	3	–
CC1=CC[C@@H]2C[C@@H](C[C@]3(CC[C@H](C)[C@@H](C)O3)O2)OC(=O)[C@@H]2C=C(C)[C@@H](O)[C@H]3OCC(=CC=C[C@H](C)C1)[C@]32O	5.3	solubility (20 °C): 0.00166 mM (≈ 0.88 µg/mL)
NC(=O)c1nc(-c2ccccc2)n(-c2ccc(Cl)c(COCC(F)(F)C(F)(F)F)c2)n1	–	solubility (pH 7.4, 20 °C): 0.00217 mM (≈ 1 µg/mL)
CCN(Cc1c(F)cccc1Cl)c1c([N+](=O)[O-])cc(C(F)(F)F)cc1[N+](=O)[O-]	5.45	–
COC(=O)c1c(Cl)c(Cl)c(C(=O)OC)c(Cl)c1Cl	4.28	solubility (25 °C): 0.00151 mM (≈ 0.5 µg/mL)
CO/C=C(/C(=O)OC)c1ccccc1Oc1cc(Oc2ccccc2C#N)ncn1	2.5	solubility (20 °C): 0.0149 mM (≈ 6 µg/mL)
CCCCN(CC)c1c([N+](=O)[O-])cc(C(F)(F)F)cc1[N+](=O)[O-]	5.29	solubility (25 °C): 0.000298 mM (≈ 0.1 µg/mL)
C#CCN1CC(=O)N(COC(=O)[C@@H]2[C@@H](C=C(C)C)C2(C)C)C1=O	2.9	solubility (25 °C): 0.294 mM (≈ 93.5 µg/mL)
COC(=O)[C@@H](C)N(C(=O)c1ccccc1)c1ccc(F)c(Cl)c1	3	–
CCOC(=O)C1CC(=O)C(=C(O)C2CC2)C(=O)C1 (configuration not stated)	1.6	–
COCC(=O)N(c1c(C)cccc1C)C(C)C(=O)OC (configuration not stated)	–	solubility (24 °C): 36.4 mM (≈ 10200 µg/mL)
CNC(=O)ON=C(SC)C(=O)N(C)C	–	solubility (25 °C): 1280 mM (≈ 280000 µg/mL)
O=C1c2ccccc2C(=O)N1SC(Cl)(Cl)Cl	–	solubility (25 °C): 0.0027 mM (≈ 0.8 µg/mL)
COc1ccsc1CN(C(=O)CCl)c1c(C)cccc1C	3.53	solubility (20 °C): 0.034 mM (≈ 11 µg/mL)
Cc1c(F)c(F)c(COC(=O)C2C(/C=C(\Cl)C(F)(F)F)C2(C)C)c(F)c1F (configuration not stated)	6.5	–
C=CCOC1=NS(=O)(=O)c2ccccc21	–	solubility: 0.672 mM (≈ 150 µg/mL)
C=CCCCOC(=O)C(CC)N(Cc1ccco1)C(=O)n1ccnc1 (configuration not stated)	3	–

SMILES	logP	further results
COCc1cnc(C2=NC(C)(C(C)C)C(=O)N2)c(C(=O)O)c1 (configuration not stated)	0.73	–
CC(C)N(Cc1ccccc1)C(=O)C(C)(C)C	3	solubility (pH 7.0, 20 °C): 3.39 mM (≈ 790 µg/mL)
CCC(Nc1ncnc(C)c1Cl)c1ccc(OC(F)F)cc1 (configuration not stated)	–	solubility: 0.101 mM (≈ 33 µg/mL)
CCOc1nc(NC)nc(NC(=O)NS(=O)(=O)c2ccccc2C(=O)OC)n1	–	logD (pH 5.0): 1.59; solubility (pH 5.0, 25 °C): 0.00414 mM (≈ 1.7 µg/mL)
CCCSP(=S)(OCC)Oc1ccc(SC)cc1 (configuration not stated)	5.48	–
CCOC(=O)[C@@H](C)Oc1ccc(Oc2nc3ccc(Cl)cc3o2)cc1	4.58	–
CCSCc1ccccc1OC(=O)NC	2.04	–
COc1cc(OC)nc(NC(=O)NS(=O)(=O)c2ncccc2C(=O)N(C)C)n1	0.01	–
CCOC(=O)CSc1nc(C(C)(C)C)nn1C(=O)N(C)C	2.69	solubility (pH 7.0, 25 °C): 1.38 mM (≈ 433 µg/mL)
O=S(=O)(c1ccc(Cl)cc1)c1cc(Cl)c(Cl)cc1Cl	4.61	solubility (20 °C): 0.000219 mM (≈ 0.078 µg/mL)
COc1cc(OC)nc(NC(=O)NS(=O)(=O)c2c(-c3nnn(C)n3)cnn2C)n1	0.65	solubility (pH 7.0, 20 °C): 2.47 mM (≈ 1050 µg/mL)
CCN(CC)C(=O)C(Cl)=C(C)OP(=O)(OC)OC	0.79	–
CC#CCOC(C)c1ccc(OC)c(OC)c1 (configuration not stated)	2.4	solubility: 0.00427 mM (≈ 1 µg/mL)
CCCN(CCC)c1c([N+](=O)[O-])cc(S(N)(=O)=O)cc1[N+](=O)[O-]	3.73	–
COP(N)(=O)SC (configuration not stated)	-0.8	–
CCN(CC)c1nc(C)cc(OP(=S)(OC)OC)n1	–	solubility (pH 7.3, 20 °C): 0.0455 mM (≈ 13.9 µg/mL)
COc1cccc(C(=O)NN(C(=O)c2cc(C)cc(C)c2)C(C)(C)C)c1C	3.7	solubility: < 0.00271 mM
CCOP(=S)(OCC)Oc1ncn(-c2ccccc2)n1	3.34	solubility (pH 7.0, 20 °C): 0.0992 mM (≈ 31.1 µg/mL)
C#CCOc1cc(-n2nc3n(c2=O)CCCC3)c(Cl)cc1Cl	–	solubility (pH 7.0): 0.0473 mM (≈ 16 µg/mL)
COC(=O)/C=C(\C)OP(=O)(OC)OC	0.13	–
CNC(=O)Oc1cc(C)cc(C)c1	–	solubility (20 °C): 2.62 mM (≈ 470 µg/mL)
COc1cc(OC)nc(N=C(O)NS(=O)(=O)Nc2ccccc2C(=O)C2CC2)n1	2.05	–

SMILES	logP	further results
O=C(Nc1ccc(F)cc1F)c1cccnc1Oc1cccc(C(F)(F)F)c1	–	solubility (25 °C): < 0.000127 mM
COCC(=O)N(c1c(C)cccc1C)N1CCOC1=O	0.8	solubility (20 °C): 12.2 mM (≈ 3400 µg/mL)
CCCN(CCC)c1c([N+](=O)[O-])cc(C(F)(F)F)c(N)c1[N+](=O)[O-]	4.1	–
CC1CCCCN1CCCOC(=O)c1ccc(Cl)c(Cl)c1 (configuration not stated)	4.31	–
COc1cc(OC)nc(N=C(O)NS(=O)(=O)N(C)S(C)(=O)=O)n1	1.63	–
COC(=O)c1c(C(F)F)nc(C(F)(F)F)c(C2=NCCS2)c1CC(C)C	3.89	–
CC1(C)OC(c2ccco2)CN1C(=O)C(Cl)Cl (configuration not stated)	2.12	solubility (20 °C): 0.708 mM (≈ 197 µg/mL)
CC(C)(SC(=O)N1CCCCC1)c1ccccc1	4.02	solubility (25 °C): 0.0759 mM (≈ 20 µg/mL)
CCNc1nc(Cl)nc(N(CC)CC)n1	–	solubility (25 °C): 0.0871 mM (≈ 20 µg/mL)
C[C@H](Oc1ccc(Oc2nc3ccc(Cl)cc3o2)cc1)C(=O)O	–	solubility (pH 5.1, 20 °C): 0.809 mM (≈ 270 µg/mL)
Cc1cc(C)nc(Nc2ccccc2)n1	–	logD (pH 6.1): 2.84; solubility (pH 6.1, 25 °C): 0.607 mM (≈ 121 µg/mL)
COc1cc(OC)nc(N=C(O)NS(=O)(=O)c2c(Cl)nc3ccccn23)n1	–	solubility (pH 5.1, 25 °C): 0.0163 mM (≈ 6.72 µg/mL)
CC1(C)OC[C@@H]2O[C@@]3(C(=O)O)OC(C)(C)O[C@H]3[C@@H]2O1	1.35	–
CCS(=O)CCSP(=O)(OC)OC (configuration not stated)	-0.74	–
CC1(C)C(C=C(Cl)Cl)C1C(=O)OC(C#N)c1ccc(F)c(Oc2ccccc2)c1 (configuration not stated)	–	solubility (20 °C): 6.91e-06 mM (≈ 0.003 µg/mL)
C=C(C)CN(CC)c1c([N+](=O)[O-])cc(C(F)(F)F)cc1[N+](=O)[O-]	–	solubility (pH 7.0, 25 °C): 0.000735 mM (≈ 0.245 µg/mL)
Cc1ccc(N(SC(F)(Cl)Cl)S(=O)(=O)N(C)C)cc1	3.9	solubility (20 °C): 0.00259 mM (≈ 0.9 µg/mL)
CCCCCCCCSC(=O)Oc1cc(Cl)nnc1-c1ccccc1	–	solubility (20 °C): 0.00396 mM (≈ 1.5 µg/mL)
Cc1cc(C2CC2)nc(Nc2ccccc2)n1	4	–
N#Cc1nn(-c2c(Cl)cc(C(F)(F)F)cc2Cl)c(N)c1S(=O)C(F)(F)F (configuration not stated)	4	solubility (20 °C): 0.00435 mM (≈ 1.9 µg/mL)
CC1(C)CCC(=Cc2ccc(Cl)cc2)C1(O)Cn1cncn1 (configuration not stated)	3.29	–
COC(=O)c1c(Cl)nn(C)c1S(=O)(=O)NC(=O)Nc1nc(OC)cc(OC)n1	–	solubility (pH 5.0, 20 °C): 0.0343 mM (≈ 14.9 µg/mL); logD (pH 7.0): -0.02

SMILES	logP	further results
CCOC(=O)C1=NN(c2ccc(Cl)cc2Cl)C(C)(C(=O)OCC)C1 (configuration not stated)	3.83	solubility (pH 6.2, 20 °C): 0.0536 mM (≈ 20 µg/mL)
CC1(C)[C@H](/C=C(\Cl)C(F)(F)F)[C@@H]1C(=O)O[C@H](C#N)c1cccc(Oc2ccccc2)c1	6.8	–
CC(C)(C)C(O)(CCc1ccc(Cl)cc1)Cn1cncn1 (configuration not stated)	3.7	–
C=C/C=C\CC1=C(C)[C@@H](OC(=O)[C@@H]2[C@@H](/C=C(\C)C(=O)OC)C2(C)C)CC1=O	4.3	–
CCS(=O)(=O)c1cccnc1S(=O)(=O)NC(=O)Nc1nc(OC)cc(OC)n1	–	logD (pH 5.0): 0.29
CN(C)NC(=O)CCC(=O)O	-1.5	–
CC(C)(C)[C@H](O)/C(=C\c1ccc(Cl)cc1)n1cncn1	–	solubility (25 °C): 0.0288 mM (≈ 8.41 µg/mL)
CC1(C)[C@H](C=C(Cl)Cl)[C@H]1C(=O)OCc1c(F)c(F)cc(F)c1F	–	solubility (20 °C): 0.000154 mM (≈ 0.057 µg/mL)
CS(=O)(=O)c1ccc(C(=O)C2C(=O)CCCC2=O)c(Cl)c1	–	solubility (25 °C): 0.502 mM (≈ 165 µg/mL)
CN(C)S(=O)(=O)N(SC(F)(Cl)Cl)c1ccccc1	3.7	–
CCS(=O)(=O)c1nc2ccccn2c1S(=O)(=O)NC(=O)Nc1nc(OC)cc(OC)n1	–	solubility (pH 5.0, 20 °C): 0.0381 mM (≈ 17.9 µg/mL)
CN=C(O)/C(=N/OC)c1ccccc1Oc1ccccc1	2.32	–
CCCCOCCOCCOCc1cc2c(cc1CCC)OCO2	4.75	solubility (25 °C): 0.0422 mM (≈ 14.3 µg/mL)
CN(C)c1nc(=O)n(C2CCCCC2)c(=O)n1C	–	solubility (25 °C): 131 mM (≈ 33000 µg/mL)
CC(C)C1(C)N=C(c2nc3ccccc3cc2C(=O)O)NC1=O (configuration not stated)	–	solubility (25 °C): 0.289 mM (≈ 90 µg/mL)
CC1CCCCC1NC(=O)Nc1ccccc1 (configuration not stated)	3.8	–
O=C(NC(=O)c1c(F)cccc1F)Nc1ccc(OC(F)(F)C(F)OC(F)(F)F)c(Cl)c1 (configuration not stated)	5.27	solubility (25 °C): 0.000108 mM (≈ 0.0531 µg/mL)
CC(C)(C)N(NC(=O)c1ccc(Cl)cc1)C(=O)c1ccccc1	3.22	solubility: 0.0363 mM (≈ 12 µg/mL)
O=C(O)c1c(Cl)c(Cl)c(Cl)c(Cl)c1C(O)=Nc1cccc(Cl)c1Cl	–	solubility (26 °C): 0.0313 mM (≈ 14 µg/mL)
CN(C(=O)COc1nc2ccccc2s1)c1ccccc1	3.23	–
